Laboratory results taken from ChEMBL document CHEMBL1140941 (J Med Chem, 2009).
Calls of active or inactive are those of the source. The calls are words filed in the database; no cut-off is given here.

Assays:
[1] = target: Vitamin D3 receptor (Homo sapiens) (UniProt P11473); assay: Agonist activity at VP16-VDR expressed in african green monkey CV1 cells co-expressing MH100 up to 10 uM by luciferase reporter gene assay relative to control; assay type: functional, cell-based; conditions: CV-1
[2] = target: T1, Androgen receptor (Homo sapiens) (UniProt P10275); assay: Agonist activity at human gal-AR expressed in african green monkey CV1 cells co-expressing MH100 with pGRIP1 co-factor by luciferase reporter gene assay; assay type: functional, cell-based; conditions: CV-1
T1 sequence (whole entry): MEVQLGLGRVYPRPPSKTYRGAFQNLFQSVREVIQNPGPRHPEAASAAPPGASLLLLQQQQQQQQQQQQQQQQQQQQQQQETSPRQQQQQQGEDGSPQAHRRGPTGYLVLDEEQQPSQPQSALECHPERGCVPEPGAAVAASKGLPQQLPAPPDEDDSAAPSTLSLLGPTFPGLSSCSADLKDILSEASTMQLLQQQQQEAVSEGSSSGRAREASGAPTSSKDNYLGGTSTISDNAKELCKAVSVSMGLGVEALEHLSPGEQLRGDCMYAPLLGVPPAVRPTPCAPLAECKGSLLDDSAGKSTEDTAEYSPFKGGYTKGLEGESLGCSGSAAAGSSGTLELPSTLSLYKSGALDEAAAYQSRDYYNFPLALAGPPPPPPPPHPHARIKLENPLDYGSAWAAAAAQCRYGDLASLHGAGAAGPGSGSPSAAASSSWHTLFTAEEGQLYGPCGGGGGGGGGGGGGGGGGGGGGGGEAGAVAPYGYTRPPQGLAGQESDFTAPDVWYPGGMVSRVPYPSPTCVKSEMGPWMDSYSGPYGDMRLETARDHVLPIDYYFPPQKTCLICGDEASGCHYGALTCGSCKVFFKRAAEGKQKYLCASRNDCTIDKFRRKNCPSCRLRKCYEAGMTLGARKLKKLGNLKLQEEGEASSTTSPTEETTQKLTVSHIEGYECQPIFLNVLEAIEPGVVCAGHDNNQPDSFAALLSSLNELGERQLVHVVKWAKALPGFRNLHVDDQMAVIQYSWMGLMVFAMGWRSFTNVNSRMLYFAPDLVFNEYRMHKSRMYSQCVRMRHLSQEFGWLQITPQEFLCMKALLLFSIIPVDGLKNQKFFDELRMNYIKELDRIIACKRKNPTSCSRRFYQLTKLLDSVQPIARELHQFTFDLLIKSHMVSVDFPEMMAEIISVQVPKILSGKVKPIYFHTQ

[3] = Cmax in CD rat at 3 mg/kg, po; assay type: ADME, organism-based; design: dose 3 mg/kg, route oral; conditions: in vivo
[4] = target: T2, Peroxisome proliferator-activated receptor alpha (Homo sapiens) (UniProt Q07869); assay: Agonist activity at PPARalpha expressed in african green monkey CV1 cells co-expressing MH100 by luciferase reporter gene assay; assay type: functional, cell-based; conditions: CV-1
T2 sequence (whole entry): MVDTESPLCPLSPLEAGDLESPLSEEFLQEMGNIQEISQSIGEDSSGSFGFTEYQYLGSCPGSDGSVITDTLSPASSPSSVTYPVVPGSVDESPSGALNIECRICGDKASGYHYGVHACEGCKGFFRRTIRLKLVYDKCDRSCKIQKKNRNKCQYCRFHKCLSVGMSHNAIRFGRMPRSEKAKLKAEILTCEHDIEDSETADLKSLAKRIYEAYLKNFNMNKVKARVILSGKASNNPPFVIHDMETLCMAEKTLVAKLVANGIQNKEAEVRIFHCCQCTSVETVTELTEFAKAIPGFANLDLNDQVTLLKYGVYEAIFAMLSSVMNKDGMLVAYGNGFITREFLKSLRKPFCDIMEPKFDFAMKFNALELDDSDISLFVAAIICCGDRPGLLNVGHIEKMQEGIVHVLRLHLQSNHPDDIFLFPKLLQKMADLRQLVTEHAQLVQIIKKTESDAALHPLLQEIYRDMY

[5] = target: Nuclear receptor subfamily 1 group I member 2 (Homo sapiens, UniProt O75469); assay: Agonist activity at SXR expressed in african green monkey CV1 cells co-expressing MH100 up to 10 uM by luciferase reporter gene assay relative to control; assay type: functional, cell-based; conditions: cv-1
[6] = target: Retinoic acid receptor gamma (Homo sapiens) (UniProt P13631); assay: Agonist activity at gal-RARgamma expressed in african green monkey CV1 cells co-expressing MH100 up to 10 uM by luciferase reporter gene assay relative to control; assay type: functional, cell-based; conditions: CV-1
[7] = Cmax in CD rat at 3 mg/kg, iv; assay type: ADME, organism-based; design: dose 3 mg/kg, route intravenous; conditions: in vivo
Mus musculus = assay: Reduction of plasma triglyceride level in C57BL/6 mouse at 10 mg/kg, po administered for 7 days measured after 3 hrs; assay type: ADME, organism-based; design: dose 10 mg/kg, route oral; conditions: in vivo
[8] = target: T3, Mineralocorticoid receptor (Homo sapiens) (UniProt P08235); assay: Antagonist activity at gal-MR expressed in african green monkey CV1 cells co-expressing MH100 at 10 uM by luciferase reporter gene assay; assay type: functional, cell-based; conditions: CV-1
T3 sequence (whole entry): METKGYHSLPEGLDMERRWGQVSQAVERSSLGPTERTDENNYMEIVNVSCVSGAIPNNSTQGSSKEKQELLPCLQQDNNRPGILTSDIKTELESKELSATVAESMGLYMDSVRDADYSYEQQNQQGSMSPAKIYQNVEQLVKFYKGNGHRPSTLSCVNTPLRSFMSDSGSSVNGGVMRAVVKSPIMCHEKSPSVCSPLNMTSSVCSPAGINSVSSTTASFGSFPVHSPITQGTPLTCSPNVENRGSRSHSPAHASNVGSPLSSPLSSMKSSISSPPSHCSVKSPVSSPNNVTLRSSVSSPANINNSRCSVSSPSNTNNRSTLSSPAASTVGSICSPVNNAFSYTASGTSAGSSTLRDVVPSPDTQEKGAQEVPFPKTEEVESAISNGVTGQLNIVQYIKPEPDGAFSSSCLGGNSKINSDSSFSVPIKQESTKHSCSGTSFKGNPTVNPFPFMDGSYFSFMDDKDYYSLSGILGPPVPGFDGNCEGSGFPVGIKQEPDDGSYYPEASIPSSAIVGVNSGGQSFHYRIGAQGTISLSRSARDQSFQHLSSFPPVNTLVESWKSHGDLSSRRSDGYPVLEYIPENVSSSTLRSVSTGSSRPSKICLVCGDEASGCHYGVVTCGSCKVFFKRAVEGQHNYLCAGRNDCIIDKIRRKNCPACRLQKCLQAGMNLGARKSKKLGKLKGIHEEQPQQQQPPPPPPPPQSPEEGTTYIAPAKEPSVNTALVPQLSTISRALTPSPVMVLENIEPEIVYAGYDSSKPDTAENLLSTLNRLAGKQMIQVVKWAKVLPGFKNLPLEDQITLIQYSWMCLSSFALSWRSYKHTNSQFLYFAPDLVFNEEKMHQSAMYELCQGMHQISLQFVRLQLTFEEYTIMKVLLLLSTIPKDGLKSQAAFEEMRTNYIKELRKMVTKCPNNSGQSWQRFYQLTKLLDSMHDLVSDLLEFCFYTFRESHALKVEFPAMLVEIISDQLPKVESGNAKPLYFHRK

Retinoic acid receptor gamma (Homo sapiens), sequence (P13631 whole entry): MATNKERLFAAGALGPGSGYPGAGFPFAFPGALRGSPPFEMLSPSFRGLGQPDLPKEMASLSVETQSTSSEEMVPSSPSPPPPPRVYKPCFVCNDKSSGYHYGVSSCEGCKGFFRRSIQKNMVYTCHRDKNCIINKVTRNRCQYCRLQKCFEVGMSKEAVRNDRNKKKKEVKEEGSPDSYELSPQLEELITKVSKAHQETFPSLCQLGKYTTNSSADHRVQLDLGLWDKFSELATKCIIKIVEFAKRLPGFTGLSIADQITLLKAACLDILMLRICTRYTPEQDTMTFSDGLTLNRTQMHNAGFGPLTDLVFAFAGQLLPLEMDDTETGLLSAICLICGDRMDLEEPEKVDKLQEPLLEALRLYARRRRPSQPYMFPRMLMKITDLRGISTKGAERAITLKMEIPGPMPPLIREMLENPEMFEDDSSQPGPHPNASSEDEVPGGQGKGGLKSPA
Nuclear receptor subfamily 1 group I member 2, sequence (O75469 whole entry): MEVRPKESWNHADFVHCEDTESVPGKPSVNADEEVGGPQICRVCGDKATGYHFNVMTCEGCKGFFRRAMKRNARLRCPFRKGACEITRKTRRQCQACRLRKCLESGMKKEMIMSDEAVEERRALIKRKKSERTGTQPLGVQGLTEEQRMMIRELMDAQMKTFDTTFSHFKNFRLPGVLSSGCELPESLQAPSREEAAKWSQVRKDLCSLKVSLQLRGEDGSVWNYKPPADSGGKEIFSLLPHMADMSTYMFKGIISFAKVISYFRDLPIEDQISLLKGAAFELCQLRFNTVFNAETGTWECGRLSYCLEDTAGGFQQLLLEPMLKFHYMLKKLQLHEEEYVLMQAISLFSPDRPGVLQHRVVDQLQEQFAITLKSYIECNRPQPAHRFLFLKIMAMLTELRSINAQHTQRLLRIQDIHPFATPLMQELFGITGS
Vitamin D3 receptor (Homo sapiens), sequence (P11473 whole entry): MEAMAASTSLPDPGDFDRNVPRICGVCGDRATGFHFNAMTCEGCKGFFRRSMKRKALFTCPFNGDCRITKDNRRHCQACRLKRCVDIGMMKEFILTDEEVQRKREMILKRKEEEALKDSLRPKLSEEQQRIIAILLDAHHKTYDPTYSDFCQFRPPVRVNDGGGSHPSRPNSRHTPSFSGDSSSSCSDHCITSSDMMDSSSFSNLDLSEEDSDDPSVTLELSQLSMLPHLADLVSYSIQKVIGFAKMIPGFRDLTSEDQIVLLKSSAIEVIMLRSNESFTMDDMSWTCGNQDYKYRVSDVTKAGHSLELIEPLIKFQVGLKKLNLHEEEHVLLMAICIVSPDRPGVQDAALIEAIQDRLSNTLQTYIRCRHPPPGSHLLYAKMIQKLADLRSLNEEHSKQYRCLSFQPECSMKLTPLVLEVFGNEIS

- Activity [1]: inactive
- Activity [2]: inactive
- Cmax [3]: 0.5 µM
- Activity [4]: inactive
- Activity [5]: Not Active
- Activity [6]: inactive
- Cmax [7]: 30.5 µM
- Activity (Mus musculus): 62 mg/dL
- inhibition [8]: 27%
Compound: CC(C)OC(=O)C1=CN(C(=O)c2ccc(F)c(F)c2)CC(C)(C)c2c1[nH]c1ccccc21 [TUROFEXORATE ISOPROPYL]
